US6562789B2, “Histidine derivatives, preparation process, and their use as free antiradical agents” (L'Oreal S.A., priority 1996, dated 2003)

Experiments:
[1] = anti-singlet-oxygen activity: deactivation of singlet oxygen, luminescence at 1270 nm, Stern-Volmer type analysis; format: physicochemical; conditions: for (kr + kq), sum of the rate constants for the chemical reaction and for the physical inhibition of singlet oxygen: singlet oxygen generated by irradiating Ru(bipy)3Cl at 437 nm in deuterated methanol, luminescence at 1270 nm
Excerpt: The anti-singlet-oxygen activity of the compound of Example 1 was compared with that of N-octanoyl-β-alanyl-L-histidine (referred to as compound A) of the prior art, according to the following principle, which is also described in Pure & Appl. Chem., vol. 62, No. 8, 1467-1476 (1990).
In all the experiments, singlet oxygen was generated by irradiating at 437 nm Ru(bipy)3Cl (tris(2,2′-bipyridyl)ruthenium chloride hexahydrate) dissolved in deuterated methanol.
The sum of the physical inhibition constants (kq) and chemical reaction constants (kr) of singlet oxygen with the test compounds was determined.
The results for the deactivation of singlet oxygen can be analysed by measuring the luminescence (infrared emission) of singlet oxygen at 1270 nm, and by monitoring the kinetics of disappearance of oxygen.
The exploitation of the results is based on the Stern-Volmer type analysis principle: the signal obtained is measured in the absence (So) and in the presence (S) of the test compound, at various concentrations in the solution. The ratio So/S makes it possible to determine the value of (kr+kq) according to the following relationship:
[P] denotes the concentration of test compound in the solution, φo denotes the quantic yield of the emission in the absence of compound, φ denotes the quantic yield of the emission in the presence of compound, τo denotes the lifetime of singlet oxygen in deuterated methanol (270 μs), kr+kq denotes the sum of the rate constants for the chemical reaction and for the physical inhibition of singlet oxygen.

melting point [°C] | Structure (SMILES) | anti-singlet-oxygen activity compared with compound A of the prior art ([1]; comparison of (kr+kq) in deuterated methanol) | (kr + kq), sum of the rate constants for the chemical reaction and for the physical inhibition of singlet oxygen [1]
188 to 190 | CCCCCCCCOC(=O)NCCC(=O)N[C@@H](Cc1c[nH]cn1)C(=O)O [Example 1, N-octyloxycarbonyl-β-alanyl-L-histidine] | significantly higher anti-singlet-oxygen activity | 8.8 × 10^6 ± 0.3 1.mol^−1.s^−1
168 to 172 | CCCCCCCCCCCCOC(=O)NCCC(=O)N[C@@H](Cc1c[nH]cn1)C(=O)O [Example 2, N-dodecyloxycarbonyl-β-alanyl-L-histidine] |  | 
 | CCCCCCCC(=O)NCCC(=O)N[C@@H](Cc1c[nH]cn1)C(=O)O [Compound A, N-octanoyl-β-alanyl-L-histidine, reference compound] |  | 7.4 × 10^5 ± 0.4 1.mol^−1.s^−1
